Test results from patent US20230159496A1, “COMPOUNDS AND METHODS FOR MODULATING SPLICING” (REMIX THERAPEUTICS INC., priority 2020, published 2023).
Structures can show the parent of a compound that is named as a salt. Where two headings read alike, the source gives them in different places.

How the values were obtained:
Assay type in all cases: cell-based
[1] = test system: HTT mRNA; assay: Splicing assay (RT-qPCR) monitoring HTT canonical junction (CJ) and alternative junction (AJ) mRNA isoforms; settings: A673 or K562 cells, 24 h treatment, top dose 10 uM
Method: Compounds described herein were used to modulate RNA transcript abundance in cells. The expression of a target mRNA was measured by detecting the formation of an exon-exon junction in the canonical transcript (CJ). A compound mediated exon-inclusion event was detected by observing an increase in formation of a new junction with an alternative exon (AJ). Real-time qPCR assays were used to detect these splicing switches and interrogate the potency of various compounds towards different target genes. A high-throughput real time quantitative PCR (RT-qPCR) assay was developed to measure these two isoforms of the mRNA (CJ and AJ) for an exemplary gene, HTT, together with a control housekeeping gene, GAPDH or GUSB or PPIA, used for normalization. Briefly, the A673 or K562 cell line was treated with various compounds described herein (e.g., compounds of Formula (I)). After treatment, the levels of the HTT mRNA targets were determined from each sample of cell lysate by cDNA synthesis followed by qPCR.
• Cells-to-CT 1-step kit: ThermoFisher A25602, Cells-to-CT lysis reagent: ThermoFisher 4391851C, TaqMan™ Fast Virus 1-Step Master Mix: ThermoFisher 4444436 • GAPDH: VIC-PL, ThermoFisher 4326317E (Assay: Hs99999905_m1)—used for K562/suspension cell lines • GUSB: VIC-PL, ThermoFisher 4326320E (Assay: Hs99999908_m1)—used for K562/suspension cell lines • PPIA: VIC-PL, ThermoFisher 4326316E (Assay: Hs99999904_m1) — used for A673/adherent cell lines
The A673 cell line was cultured in DMEM with 10% FBS. Cells were diluted with full growth media and plated in a 96-well plate (15,000 cells in 100 ul media per well). The plate was incubated at 37° C. with 5% CO2 for 24 hours to allow cells to adhere. An 11-point 3-fold serial dilution of the compounds was made in DMSO then diluted in media in an intermediate plate. Compounds were transferred from the intermediate plate to the cell plate with the top dose at a final concentration of 10 uM in the well. Final DMSO concentration was kept at or below 0.25%. The cell plate was returned to the incubator at 37° C. with 5% CO2 for an additional 24 hours.
The K562 cell line was cultured in IMDM with 10% FBS. For K562, cells were diluted with full growth media and plated in either a 96-well plate (50,000 cells in 50 uL media per well) or a 384-well plate (8,000-40,000 cells in 45 uL media per well). An 11-point 3-fold serial dilution of the compounds were made in DMSO then diluted in media in an intermediate plate. Compound was transferred from the intermediate plate to the cell plate with the top dose at a final concentration of 10 uM in the well. Final DMSO concentration was kept at or below 0.25%. Final volume was 100 uL for 96-well plate and 50 uL for 384-well plate. The cell plate was then placed in an incubator at 37° C. with 5% CO2 for 24 hours.
The cells were then gently washed with 50 uL-100 uL cold PBS before proceeding to addition of lysis buffer. 30 uL-50 uL of room temperature lysis buffer with DNAse I (and optionally RNAsin) was added to each well. Cells were shaken/mixed thoroughly at room temperature for 5-10 minutes for lysis to take place and then 3 uL-5 uL of room temperature stop solution was added and wells were shaken/mixed again. After 2-5 minutes, the cell lysate plate was transferred to ice for RT-qPCR reaction setup. The lysates could also be frozen at −80° C. for later use.
In some cases, a direct lysis buffer was used. An appropriate volume of 3× lysis buffer (10 mM Tris, 150 mM NaCl, 1.5%-2.5% Igepal and 0.1-1 U/uL RNAsin, pH 7.4) was directly added to either K562 or A673 cells in media and mixed by pipetting 3 times. The plates were then incubated at room temperature with shaking/rocking for 20-50 minutes to allow for lysis to take place. After this time, the cell lysate plate was transferred to ice to set up for the RT-qPCR reactions. The lysates could also be frozen at −80° C. for later use. […]

[2] = test system: SMN2 CJ mRNA; assay: Gene panel canonical junction qPCR assay, SMN2; settings: decrease in CJ mRNA levels, gene panel; read-out: SMN2 IC50
Method: (§1) The expression of a target mRNA was measured by detecting the formation of an exon-exon junction in the canonical transcript (CJ). A compound mediated exon-inclusion event was detected by observing an increase in formation of a new junction with an alternative exon (AJ). Real-time qPCR assays were used to detect these splicing switches and interrogate the potency of various compounds towards different target genes. A high-throughput real time quantitative PCR (RT-qPCR) assay was developed to measure these two isoforms of the mRNA (CJ and AJ) for an exemplary gene, HTT, together with a control housekeeping gene, GAPDH or GUSB or PPIA, used for normalization. Briefly, the A673 or K562 cell line was treated with various compounds described herein (e.g., compounds of Formula (I)). After treatment, the levels of the HTT mRNA targets were determined from each sample of cell lysate by cDNA synthesis followed by qPCR. The A673 cell line was cultured in DMEM with 10% FBS. Cells were diluted with full growth media and plated in a 96-well plate (15,000 cells in 100 ul media per well). The plate was incubated at 37° C. with 5% CO2 for 24 hours to allow cells to adhere. An 11-point 3-fold serial dilution of the compounds was made in DMSO then diluted in media in an intermediate plate. Compounds were transferred from the intermediate plate to the cell plate with the top dose at a final concentration of 10 uM in the well. Final DMSO concentration was kept at or below 0.25%. The cell plate was returned to the incubator at 37° C. with 5% CO2 for an additional 24 hours. The K562 cell line was cultured in IMDM with 10% FBS. For K562, cells were diluted with full growth media and plated in either a 96-well plate (50,000 cells in 50 uL media per well) or a 384-well plate (8,000-40,000 cells in 45 uL media per well). An 11-point 3-fold serial dilution of the compounds were made in DMSO then diluted in media in an intermediate plate. Compound was transferred from the intermediate plate to the cell plate with the top dose at a final concentration of 10 uM in the well. Final DMSO concentration was kept at or below 0.25%. Final volume was 100 uL for 96-well plate and 50 uL for 384-well plate. The cell plate was then placed in an incubator at 37° C. with 5% CO2 for 24 hours. The cells were then gently washed with 50 uL-100 uL cold PBS before proceeding to addition of lysis buffer. 30 uL-50 uL of room temperature lysis buffer with DNAse I (and optionally RNAsin) was added to each well. Cells were shaken/mixed thoroughly at room temperature for 5-10 minutes for lysis to take place and then 3 uL-5 uL of room temperature stop solution was added and wells were shaken/mixed again. After 2-5 minutes, the cell lysate plate was transferred to ice for RT-qPCR reaction setup. The lysates could also be frozen at −80° C. for later use. In some cases, a direct lysis buffer was used. An appropriate volume of 3× lysis buffer (10 mM Tris, 150 mM NaCl, 1.5%-2.5% Igepal and 0.1-1 U/uL RNAsin, pH 7.4) was directly added to either K562 or A673 cells in media and mixed by pipetting 3 times. The plates were then incubated at room temperature with shaking/rocking for 20-50 minutes to allow for lysis to take place. After this time, the cell lysate plate was transferred to ice to set up for the RT-qPCR reactions. The lysates could also be frozen at −80° C. for later use. To set up 10 uL RT-qPCR reactions, cell lysates were transferred to 384-well qPCR plates containing the master mix according to the table below. The plates were sealed, gently vortexed, and spun down before the run. The volumes were adjusted accordingly in some instances where the reaction was carried in 20 uL. The table below summarizes the components of the RT-qPCR reactions: The RT-qPCR reaction was performed using a QuantStudio (ThermoFisher) under the following fast cycling conditions. All samples and standards were analyzed at least in duplicate.

[3] = test system: Target C CJ mRNA; assay: Gene panel canonical junction qPCR assay, Target C; settings: decrease in CJ mRNA levels, gene panel; read-out: Target C IC50
Method: as §1

[4] = test system: HTT CJ mRNA; assay: Gene panel canonical junction qPCR assay, HTT; settings: decrease in CJ mRNA levels, gene panel; read-out: HTT IC50
Method: as §1

[5] = decrease in CJ mRNA (50% response), read-out: HTT CJ AC50
[6] = increase in AJ mRNA (50% response), read-out: HTT AJ AC50

| SMILES | IC50 [2] [µM] | IC50 [3] [µM] | IC50 [4] [µM] | AC50 [1, 5] [µM] | AC50 [1, 6] [µM] |
| --- | --- | --- | --- | --- | --- |
| Cn1cc2cc(-n3cnc4cc(N5CCNCC5)ccc4c3=O)ccc2n1 [Compound 153, 3-(2-methyl-2H-indazol-5-yl)-7-(piperazin-1-yl)quinazolin-4(3H)-one] | 1 to 10 | – | > 10 | > 10 | > 10 |
| Cn1cc2cc(-n3cnc4cc(C5=CCNCC5)ccc4c3=O)ccc2n1 [Compound 158, 3-(2-methyl-2H-indazol-5-yl)-7-(1,2,3,6-tetrahydropyridin-4-yl)quinazolin-4(3H)-one] | > 10 | – | > 10 | > 10 | > 10 |
| CN1CC=C(c2ccc3c(=O)n(-c4ccc5nn(C)cc5c4)cnc3c2)CC1 [Compound 159, 7-(1-methyl-1,2,3,6-tetrahydropyridin-4-yl)-3-(2-methyl-2H-indazol-5-yl)quinazolin-4(3H)-one] | > 10 | – | > 10 | > 10 | > 10 |
| Cn1cc2cc(-n3cnc4cc(NC5CCNCC5)ccc4c3=O)ccc2n1 [Compound 162] | > 10 | – | > 10 | > 10 | > 10 |
| Cc1cn2nc(-c3ccc4c(=O)n([C@H]5CCN[C@H](C)C5)ncc4c3)cc(C)c2n1 [Compound 273] | – | 0.1 to 1 | < 0.1 | < 0.1 | 0.1 to 1 |
| Cc1cn2nc(-c3ccc4c(=O)n(C5CCOCC5)ncc4c3)cc(C)c2n1 [Compound 275] | – | > 10 | > 10 | – | – |
| CC[C@@H]1C[C@@H](n2ncc3cc(-c4cc(C)c5nc(C)cn5n4)ccc3c2=O)CCN1 [Compound 305, 6-{2,8-dimethylimidazo[1,2-b]pyridazin-6-yl}-2-[(2R,4S)-2-ethylpiperidin-4-yl]phthalazin-1-one] | – | 0.1 to 1 | 0.1 to 1 | 0.1 to 1 | 1 to 10 |

The next lines start with results.

| IC50 [2] [µM] | IC50 [3] [µM] | IC50 [4] [µM] | SMILES | AC50 [1, 5] [µM] | AC50 [1, 6] [µM] |
| --- | --- | --- | --- | --- | --- |
| 1 to 10 | 1 to 10 | > 10 | CN1CCN(c2ccc3nc(-c4ccc5nn(C)cc5c4)[nH]c(=O)c3c2)CC1 [Compound 108, 2-(2-methyl-2H-indazol-5-yl)-6-(4-methylpiperazin-1-yl)quinazolin-4(3H)-one] | > 10 | > 10 |
| > 10 | > 10 | > 10 | CN1CCN(c2ccc3c(=O)n(-c4ccc5nn(C)cc5c4)cnc3c2)CC1 [Compound 152, 3-(2-methyl-2H-indazol-5-yl)-7-(4-methylpiperazin-1-yl)quinazolin-4(3H)-one] | > 10 | > 10 |
| 0.1 to 1 | – | 1 to 10 | Cc1cc(-c2ccc3c(=O)n(C4CCN(C)CC4)cnc3c2)cc2cn(C)nc12 [Compound 156] | 1 to 10 | 1 to 10 |
| 1 to 10 | – | > 10 | Cc1cc(-c2ccc3c(=O)n(C4CC(C)(C)NC(C)(C)C4)cnc3c2)cc2cn(C)nc12 [Compound 157, 7-(2,7-dimethyl-2H-indazol-5-yl)-3-(2,2,6,6-tetramethylpiperidin-4-yl)quinazolin-4(3H)-one hydrochloride] | > 10 | > 10 |
| 0.1 to 1 | – | > 10 | Cc1cc(-c2ccc3nc(N4CCN(C)CC4)[nH]c(=O)c3c2)cc2cn(C)nc12 [Compound 165, 6-(2,7-dimethyl-2H-indazol-5-yl)-2-(4-methylpiperazin-1-yl)quinazolin-4(3H)-one] | > 10 | > 10 |
| 1 to 10 | – | > 10 | Cc1cc(-c2ccc3c(=O)n(C4CCN(C)CC4)cnc3n2)cc2cn(C)nc12 [Compound 173, 7-(2,7-dimethyl-2H-indazol-5-yl)-3-(1-methylpiperidin-4-yl)pyrido[2,3-d]pyrimidin-4(3H)-one] | > 10 | > 10 |
| < 0.1 | – | 0.1 to 1 | Cc1cc(-c2ccc3c(=O)n(C4CCNCC4)cnc3c2)cc2cn(C)nc12 [Compound 174, 7-(2,7-dimethyl-2H-indazol-5-yl)-3-(piperidin-4-yl)quinazolin-4(3H)-one] | 0.1 to 1 | 0.1 to 1 |
